Series [1] in a line: FIG. 23A. The method, then: Table printed on a drawing sheet, FIG. 23A
Data from a dose of 10 mg/kg and a single discrete subcutaneous dose of 10 mg/kg are shown. FIG. 23B is a graph showing mean RI-CT whole blood concentrations in male CD-1 mice following a single IV bolus dose of 10 mg/kg and a single SC dose of 10 mg/kg. […] This is a long half-life that will make it feasible to use RI-CT in a clinical setting with a once daily dose.
First reader's note: SC arm; the last four rows (n, Mean, SD, CV%) are summary statistics over the animals, and the meaning of ** is not printed on the sheet.

Series [2] concerns the target T1, recombinant HLA-DQ8 protein (Homo sapiens, UniProt P01909+P01920).
T1 construct: contained the extracellular portion of the DQA1*0301 α chain fused to the coiled-coil region of the basic leucine zipper domain of Fos; contained the extracellular portion of the DQB1*0302 β chain fused to the coiled-coil region of the basic leucine zipper domain of JunB; Fos leucine zipper (coiled-coil region) (C); TEV protease site (internal); His6; JunB leucine zipper (coiled-coil region) (C); FLAG; host or cells: baculovirus system
In words: DELFIA immunoassay: inhibition of biotinylated InsB:9-23 binding to recombinant HLA-DQ8. An excerpt: HLA-DQ8 protein was produced using the baculovirus system. Two constructs were designed for both the α and the β chains of HLA-DQ8. The β chain construct contained the extracellular portion of the DQB1*0302 β chain fused to the coiled-coil region of the basic leucine zipper domain of JunB, and the α chain construct contained the extracellular portion of the DQA1*0301 α chain fused to the coiled-coil region of the basic leucine zipper domain of Fos. […] A tobacco etch virus protease cutting site was introduced in each chain to allow removal of the dimerization motif. The JunB and Fos dimerization motifs were added in order to allow the α and β chains to dimerize and form the final HLA-DQ8 protein (FIG. 12A). These constructs were used to produce the HLA-DQ8 protein in a baculovirus system using the Life Technologies Baculovirus protein production custom services (Carlsbad, CA).
D-peptides were produced by Fisher Scientific (Hanover Park, IL) in dry form and dissolved in PBS. All D-peptides were screened at a concentration of 10 μM for their ability to bind to the HLA-DQ8 pocket and block it from binding the InsB:9-23 peptide using a unique immunoassay (23). […] After washing 4 times, DELFIA Europium-labeled streptavidin (PerkinElmer) diluted in DELFIA assay buffer (PerkinElmer) was added for 30 minutes and shaken at slow speed at room temperature. Since the InsB:9-23 peptide was biotinylated the complex HLA-DQ8-InsB:9-23 peptide could be detected using the Europium-labeled streptavidin. After washing for 6 times, DELFIA Enhancement Solution was added for 1 hour or until the optimal signal was reached. Time-resolved fluorescence was measured using the BMG reader (BMG Labtech, Cary, NC). The experiment was performed in triplicate. As a negative control biotinylated InsB:9-23 peptide that was not pre-incubated with HLA-DQ8 was added to the nickel coated plates.
Immunoassay was performed as described above.

Series [3] has as its target T2, HLA-DQ8 expressed on BSM cells (Homo sapiens, UniProt P01909+P01920, F237L).
T2 construct: BSM cells that express HLA-DQ8 on their surface; host or cells: BSM cells (B-cell line homozygous for HLA-DQ8)
The series can be described thus: Flow cytometric analysis of InsB:9-23 peptide binding to BSM cells. In kind it is cell-based. To be noted: 10 μM peptide; flow cytometry.
Experimental: N-terminal biotinylated peptide InsB:9-23 (or gliadin) were used to test for binding to BSM cells that express HLA-DQ8 on their surface. APC-streptavidin (BD Biosciences, Franklin Lakes, NJ) were used to detect the biotinylated peptides. […] After 24 hours incubation, cells were stained with PE-mouse anti-human HLA-DQ8 (BD Biosciences) and APC-streptavidin to detect the percent binding of the peptide to BSM cells with or without D-peptides. Percent binding was analyzed by flow cytometry.

Series [4] can be described thus: Pharmacokinetics of RI-CT in male CD-1 mice. Particulars: mouse, in vivo. The method, then: 30 μL of each STD, QC sample and matrix for blanks was added to separate wells of a 96 well plate. 800 μL of water:MeOH (95:5, v/v) was added to the STDs, QCs and blanks. For study samples, 400 μL of water:MeOH (95:5, v/v) was added to each. Mouse whole blood samples were diluted 1:2 with 0.1% formic acid in an aqueous 25 mM EDTA solution when samples were collected; consequently, there was an initial dilution factor of 3. Additionally, 400 μL of water:MeOH (95:5, v/v) was added to each diluted sample. To all samples, 20 μL of internal standard (200 ng/mL tolbutamide) solution in water was added. The samples were vortexed vigorously for 5 minutes and then loaded onto a pre-conditioned Oasis HLB 96-well SPE plate. The Oasis HLB 96-well SPE plate was conditioned with 1 mL of methanol and then rinsed with 1 mL of water before the samples were loaded. Once loaded onto the Oasis HLB 96-well SPE plate, residual solution was removed by vacuum. The samples were eluted into a clean 96-well plate with 800 μL of ACN: 0.1% aqueous formic acid (70:30, v/v). The samples were evaporated to dryness under nitrogen at ambient temperature using a TurboVap 96 Concentration Workstation (Caliper Life Sciences). The residues were reconstituted in 150 μL of ACN: 0.1% aqueous formic acid (25:75, v/v) and 10 μL of 0.1 M TCEP. The samples were vortexed for approximately 10 minutes and then aliquots were injected for LC-MS/MS analysis.
• LC System: System #731 • HPLC Pump: Shimadzu LC-30AD • Autosampler: Shimadzu SIL-30AC MP HPLC Conditions: • Mobile Phase A=0.1% Aqueous Formic Acid • Mobile Phase B=0.1% Formic Acid in ACN • Column Temperature=Ambient • Injection Volume=8 μL • Column=ACE C8, 2.1×50 mm, 5 μm • Flow rate=0.6 mL/min • MS/MS System: System #730 • SCIEX API 5500 Triple Quad (S/N 213451604) MS Conditions: • Scan Type=MRM • Polarity=Positive • Ion Source=ESI • CAD=10 • CUR=20 • GS1/GS2=50/50 • IS=2500 • TEM=550

In series [5] the test system is PBMCs isolated from DQ8 positive T1D patients. In words: Cytokine production in PBMCs from DQ8 positive recent-onset T1D patients. In kind it is cell-based, human. Particulars: stimulated with InsB:9-23 for 48 h; all peptides at 50 μg/ml. An excerpt:
Subjects with a diagnosis of T1D within the previous 2 years were recruited from the Pediatric Endocrine clinic at Children Hospital at Montefiore and from the adult Endocrine clinics at Montefiore and Mount Sinai Hospitals (New York). Peripheral blood mononuclear cells (PBMCs) were isolated from heparinized blood using Ficoll-Paque (GE Healthcare); freshly isolated PBMCs were used for T-cell activation studies and for genotyping. DNA purified from the blood of the patients was typed for HLA-DQ as previously described (32). PBMCs isolated from DQ8 positive patients were seeded in 96 well plates with 200 μl medium (RPMI, 10% FBS). […] The stimulated PBMCs were assessed for cytokine production and T-cell proliferation as described above for mouse splenocytes. DQ8 typed patients with long standing T1D (>10 years) were used as negative controls in the experiments (no T-cell responses to islet peptides).

Entries after “also recorded” stand apart in the source; their conditions may differ.

T2 sequence (P01920 33-261 A45G/Y58L/E77G/D89A/H199R/T217I, other chains not shown): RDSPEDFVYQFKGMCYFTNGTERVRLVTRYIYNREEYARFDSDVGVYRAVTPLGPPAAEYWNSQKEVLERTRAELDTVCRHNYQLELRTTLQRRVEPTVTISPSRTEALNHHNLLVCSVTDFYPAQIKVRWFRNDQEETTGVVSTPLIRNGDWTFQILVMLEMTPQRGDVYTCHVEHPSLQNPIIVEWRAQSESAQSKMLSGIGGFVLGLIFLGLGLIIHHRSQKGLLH

As a reminder, the clearance is the rate of elimination divided by the concentration. Read a high clearance as a high capacity for elimination. A word on the half-life: it is the time in which the quantity being followed falls by half. A lower half-life goes with rapid decline. The term AUC(0-inf) denotes the area under the concentration-time curve extrapolated to infinity. Higher therefore signals high exposure. For orientation: Cmax means the peak of the concentration-time curve. One may read the Tmax as the time at which the peak concentration occurs. The bioavailability is the share of a dose that reaches the circulation, judged against a reference dose that is usually intravenous. A higher bioavailability goes with good availability. In the case of `CC(C)C[C@@H](NC(=O)[C@@H](Cc1ccc(O)cc1)NC(=O)[C@@H](CC(C)C)NC(=O)[C@H](NC(=O)[C@@H](CS)NC(=O)CNC(=O)[C@@H](CCC(=O)O)NC(=O)[C@@H](CCCNC(=N)N)NC(=O)CNC(=O)CN)C(C)C)C(=O)N[C@H](C)C(=O)N[C@H](CCC(=O)O)C(=O)N[C@@H](C(=O)NCC(=O)NCC(=O)O)C(C)C` [RI-CT], in series [1], the “AUClast” value is 3.83 µg·h/mL and the “MRTinf” value stood at 4.50 h. Besides, the “inhibition of InsB:9-23 binding to HLA-DQ8 (in words)” value in series [2] (D-peptides screened at 10 μM, recombinant HLA-DQ8) is recorded as “significant inhibition”. The “dose dependence of the inhibition of InsB:9-23 binding to HLADQ8” value in series [2] (serially diluted to 0.5 μM, FIG. 3D) is “dose-dependent”. In series [3], the “inhibition of the binding of InsB:9-23 to DQ8 expressed on BSM cells (in words)” value was “inhibits the binding”. In series [4] (iv, 10 mg/kg), this compound showed a clearance of 1.62 L/h/kg and a half-life of 7.46 h. In series [4] (sc, 10 mg/kg), the AUC(0-inf) was found to be 4.14 µg·h/mL, the highest level (Cmax) was 5.12 µg/mL, the Tmax amounted to 0.77 h and the bioavailability was determined as 47%. The compound further showed a half-life in series [4] (sc, 10 mg/kg) of 6.02 h. Moreover, the Vd in series [4] (IV, single dose of 10 mg/kg, whole blood, read-out: volume of distribution) is 6.9 L/kg. In series [5], the “IFN-γ production, PBMCs of DQ8 positive T1D patients” value is recorded as “significantly suppressed; also recorded: significantly decreased” and the “IL-2 production, PBMCs of DQ8 positive T1D patients” value is recorded as “significantly suppressed; also recorded: significantly decreased”.

For the origin of these results see US12552854B2, “Peptides that block presentation of antigenic islet peptides by HLA-DQ8 and methods for treating type-1 diabetes” (Icahn School of Medicine at Mount Sinai, priority 2019, dated 2026).
